Reference: patent publication US20160355530A1, “HEPATITIS C INHIBITORS AND USES THEREOF” (AbbVie Inc., priority 2010, published 2016)
Read-outs that look alike come from different tables or passages of the source.

Columns and labels:
[1] = biological target: T1, HCV NS5B polymerase 1a-H77 (Hepatitis C virus genotype 1a, UniProt P27958); assay: biochemical; design: species or system HCV genotype 1a; conditions: enzyme, strain 1a H77; read-out: HCV Polymerase Strain 1a H77 IC50
T1 construct: six-histidine tag; made in house; host or cells: E. coli
Outline: (§1)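 Incorporation of [3H]UTP (0.284 μM), alongside 20 μM each CTP and ATP, into RNA copied from a 5 nM 2.1 kb genotype 1b negative-strand template was measured after 3 h at 30° C using purified His-tagged NS5B truncated at residue 570. Product was spermine-precipitated, filtered and scintillation-counted; nonlinear regression gave IC50.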

[2] = biological target: T2, HCV NS5B polymerase 1a-H77-C316Y (Hepatitis C virus genotype 1a, UniProt P27958, C2736Y); assay: biochemical; design: species or system HCV genotype 1a
T2 construct: six-histidine tag; made in house; host or cells: E. coli
Outline: as §1

[3] = test system: HCV NS5B polymerase 1a-H77-C316Y; assay: biochemical; design: species or system HCV genotype 1a; conditions: ratio of enzyme IC50s, 1a H77-C316Y / 1a H77
Outline: as §1

[4] = test system: HCV 1b-BB7 subgenomic replicon; assay: microbe, parasite or virus in culture; assay type: cell-based, HCV genotype 1b; conditions: Hepatitis C virus, stable replicon
[5] = test system: HCV 1a-H77 subgenomic replicon; assay: microbe, parasite or virus in culture; assay type: cell-based, HCV genotype 1a; conditions: Hepatitis C virus, stable replicon
[6] = biological target: T3, HCV NS5B polymerase 1b BK strain (Hepatitis C virus genotype 1b, UniProt P26663); assay: HCV NS5B polymerase enzymatic inhibition assay, strain 1b BK; assay type: biochemical; conditions: enzyme, strain 1b BK; read-out: HCV Polymerase Strain 1b BK IC50
T3 construct: six-histidine tag; made in house; host or cells: E. coli
Outline: as §1

[7] = test system: chimeric replicon with genotype 4a NS5B; assay: microbe, parasite or virus in culture; assay type: cell-based, HCV genotype 4a; conditions: Hepatitis C virus, read-out: 4a chimera 5% FBS EC50
[8] = test system: chimeric replicon with genotype 3a NS5B; assay: microbe, parasite or virus in culture; assay type: cell-based, HCV genotype 3a; conditions: Hepatitis C virus, read-out: 3a chimera 5% FBS EC50
[9] = test system: chimeric replicon with genotype 2b NS5B; assay: microbe, parasite or virus in culture; assay type: cell-based, HCV genotype 2b; conditions: Hepatitis C virus, read-out: 2b chimera 5% FBS EC50
[10] = test system: chimeric replicon with 2a-J6CF-derived NS5B; assay: microbe, parasite or virus in culture; assay type: cell-based, HCV genotype 2a; conditions: Hepatitis C virus, read-out: 2a chimera 5% FBS EC50
[11] = strain 1b BB7, 5% FBS + 40% human plasma, read-out: 1b BB7 5% FBS + 40% Human Plasma EC50
[12] = strain 1b BB7, 5% FBS, no human plasma, read-out: 1b BB7 5% FBS EC50
[13] = strain 1b BB7, 5% FBS, read-out: 1b BB7 5% FBS EC50
[14] = 5% FBS, absence of human plasma, read-out: Stable Replicon 1a H77 5% FBS EC50
[15] = strain 1a H77, 5% FBS + 40% human plasma, read-out: 1a H77 5% FBS + 40% Human Plasma EC50
[16] = strain 1a H77, 5% FBS, no human plasma, read-out: 1a H77 5% FBS EC50
[17] = strain 1a H77, 5% FBS, read-out: 1a H77 5% FBS EC50

T1 sequence (P27958 2421-2990): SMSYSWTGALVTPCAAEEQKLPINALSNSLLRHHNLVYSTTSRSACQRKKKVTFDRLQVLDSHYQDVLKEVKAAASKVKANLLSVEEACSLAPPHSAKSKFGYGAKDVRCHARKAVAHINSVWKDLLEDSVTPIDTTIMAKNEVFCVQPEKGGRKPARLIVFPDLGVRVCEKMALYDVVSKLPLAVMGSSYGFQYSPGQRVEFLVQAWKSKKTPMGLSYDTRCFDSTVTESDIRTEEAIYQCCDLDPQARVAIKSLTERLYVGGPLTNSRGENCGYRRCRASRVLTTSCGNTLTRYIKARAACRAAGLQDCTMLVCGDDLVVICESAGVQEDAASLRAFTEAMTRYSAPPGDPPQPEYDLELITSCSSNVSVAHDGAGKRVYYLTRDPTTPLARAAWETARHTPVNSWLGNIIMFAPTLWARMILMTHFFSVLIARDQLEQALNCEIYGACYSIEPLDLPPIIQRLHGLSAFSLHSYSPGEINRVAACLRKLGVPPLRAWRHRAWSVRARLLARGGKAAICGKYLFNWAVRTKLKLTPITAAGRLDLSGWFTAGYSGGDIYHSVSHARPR
T3 sequence (P26663 2420-2989): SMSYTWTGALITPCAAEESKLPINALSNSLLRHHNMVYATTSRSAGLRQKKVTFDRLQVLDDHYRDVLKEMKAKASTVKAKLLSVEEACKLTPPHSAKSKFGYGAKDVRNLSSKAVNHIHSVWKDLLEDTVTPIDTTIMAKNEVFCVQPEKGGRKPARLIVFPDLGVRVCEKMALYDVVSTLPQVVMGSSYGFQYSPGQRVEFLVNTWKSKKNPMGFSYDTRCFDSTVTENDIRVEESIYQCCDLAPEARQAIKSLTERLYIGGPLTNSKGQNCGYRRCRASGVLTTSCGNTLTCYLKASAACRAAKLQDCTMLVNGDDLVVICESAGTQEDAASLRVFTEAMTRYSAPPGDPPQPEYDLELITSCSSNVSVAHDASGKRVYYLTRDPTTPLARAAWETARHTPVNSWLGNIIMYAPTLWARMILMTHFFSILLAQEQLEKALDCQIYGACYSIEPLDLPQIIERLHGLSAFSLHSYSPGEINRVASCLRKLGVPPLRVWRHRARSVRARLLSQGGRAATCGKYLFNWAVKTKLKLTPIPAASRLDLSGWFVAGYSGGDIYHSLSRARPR
T2 sequence (P27958 2421-2990 C2736Y): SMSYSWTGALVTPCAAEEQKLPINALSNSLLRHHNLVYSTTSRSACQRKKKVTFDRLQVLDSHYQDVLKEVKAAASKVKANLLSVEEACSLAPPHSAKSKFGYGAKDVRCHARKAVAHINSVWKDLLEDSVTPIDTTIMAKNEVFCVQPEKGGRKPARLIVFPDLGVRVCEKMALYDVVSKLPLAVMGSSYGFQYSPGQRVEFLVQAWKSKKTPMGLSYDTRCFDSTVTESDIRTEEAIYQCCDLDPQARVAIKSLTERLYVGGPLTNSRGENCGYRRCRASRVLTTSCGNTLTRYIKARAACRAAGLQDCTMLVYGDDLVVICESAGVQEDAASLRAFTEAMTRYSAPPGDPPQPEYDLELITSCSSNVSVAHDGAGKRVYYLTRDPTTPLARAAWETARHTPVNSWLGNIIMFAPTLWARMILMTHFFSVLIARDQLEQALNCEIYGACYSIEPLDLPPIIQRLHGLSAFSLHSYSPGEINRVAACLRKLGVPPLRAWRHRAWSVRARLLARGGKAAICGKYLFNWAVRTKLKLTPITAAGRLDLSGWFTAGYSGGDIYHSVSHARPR

SMILES | IC50 [1] | IC50 [2] | C316Y/1a Fold Resistance [3] | EC50 [4, 11] | EC50 [4, 12] | EC50 [4, 13] | EC50 [5, 14] | EC50 [5, 15] | EC50 [5, 16] | EC50 [5, 17] | IC50 [6] | EC50 [7] | EC50 [8] | EC50 [9] | EC50 [10]
CCN(c1cc2oc(-c3ccc(F)cc3)c(-c3ncc[nH]3)c2cc1C1CC1)S(C)(=O)=O [Example 56, N-[5-cyclopropyl-2-(4-fluorophenyl)-3-(1H-imidazol-2-yl)-1-benzofuran-6-yl]-N-ethylmethanesulfonamide] | 3.5 nM | 220 nM | 64 fold | 62 nM | 12.1 nM | 12.1 nM | 27.8 nM | 192 nM | 27.8 nM | 27.8 nM | 17 nM | 81.9 nM | 9.6 nM | 42.6 nM | 49.3 nM
[2H]C([2H])(CCCCC)N(c1cc2oc(-c3ccc(F)cc3)c(-c3ncc[nH]3)c2cc1C1CC1)S(C)(=O)=O [Example 113, N-[5-cyclopropyl-2-(4-fluorophenyl)-3-(1H-imidazol-2-yl)-1-benzofuran-6-yl]-N-[(1,1-^2H2)hexyl]methanesulfonamide] | 6.5 nM | 140 nM | 22 fold | 549 nM | 28 nM | 28 nM | 59.9 nM | 646 nM | 59.9 nM | 59.9 nM | 16 nM | 144 nM | 41 nM | 279 nM | 209 nM
CS(=O)(=O)N(CCCN1CCCCC1)c1cc2oc(-c3ccc(F)cc3)c(C3=NOCCN3)c2cc1C1CC1 [Example 130, N-[5-cyclopropyl-3-(5,6-dihydro-4H-1,2,4-oxadiazin-3-yl)-2-(4-fluorophenyl)-1-benzofuran-6-yl]-N-[3-(piperidin-1-yl)propyl]methanesulfonamide] | 20.5 nM | 412 nM | 20 fold | 110 nM | 26 nM | 26 nM | 44.2 nM | 296 nM | 44.2 nM | 44.2 nM | 229 nM | 416 nM | 42.6 nM |  | 74 nM
COCCN(c1cc2oc(-c3ccc(F)cc3)c(-c3ncc[nH]3)c2cc1C1CC1)S(C)(=O)=O [Example 47, N-[5-cyclopropyl-2-(4-fluorophenyl)-3-(1H-imidazol-2-yl)-1-benzofuran-6-yl]-N-(2-methoxyethyl)methanesulfonamide] | 7.9 nM | 1000 nM | 126 fold | 148 nM | 25.6 nM | 25.6 nM | 81.7 nM | 771 nM | 81.7 nM | 81.7 nM | 41 nM |  |  |  | 
CS(=O)(=O)N(CC1CCCCC1)c1cc2oc(-c3ccc(F)cc3)c(-c3ncc[nH]3)c2cc1C1CC1 [Example 45, N-(cyclohexylmethyl)-N-[5-cyclopropyl-2-(4-fluorophenyl)-3-(1H-imidazol-2-yl)-1-benzofuran-6-yl]methanesulfonamide] | 7.5 nM | 295 nM | 39 fold | 4410 nM | 180 nM | 180 nM | 87.4 nM | 3010 nM | 87.4 nM | 87.4 nM | 110 nM |  |  |  | 
CS(=O)(=O)N(CCN1CCCC1)c1cc2oc(-c3ccc(F)cc3)c(-c3ncc[nH]3)c2cc1C1CC1 [Example 81, N-[5-cyclopropyl-2-(4-fluorophenyl)-3-(1H-imidazol-2-yl)-1-benzofuran-6-yl]-N-[2-(pyrrolidin-1-yl)ethyl]methanesulfonamide] | 31.8 nM | 4800 nM | 151 fold | 129 nM | 36.9 nM | 36.9 nM | 205 nM | 732 nM | 205 nM | 205 nM | 137 nM |  |  |  | 
